Experimental data: BindingDB's records for doi:10.1016/s0960-894x(98)00476-4 (University of Michigan, 1999)

Experiment: Binding affinity against Opioid receptor delta 1

Compound	Ki [nM]
CC1(C)SCCSC[C@@H](NC(=O)[C@@H](N)Cc2ccccc2)C(=O)N[C@@H](Cc2ccccc2)C(=O)N[C@H]1C(N)=O [12-(2-Amino-3-phenyl-propionylamino)-9-benzyl-5,5-dimethyl-8,11-dioxo-1,4-dithia-7,10-diaza-cyclotridecane-6-carboxylic acid amide]	1020
CC1(C)SSC[C@@H](NC(=O)[C@@H](N)Cc2ccccc2)C(=O)N[C@@H](Cc2ccccc2)C(=O)N[C@H]1C(=O)O [10-(2-Amino-3-phenyl-propionylamino)-7-benzyl-3,3-dimethyl-6,9-dioxo-1,2-dithia-5,8-diaza-cycloundecane-4-carboxylic acid]	42
